Entries after “also recorded” stand apart in the source; their conditions may differ.
How the values were obtained:
[1] = Real time in situ AFM step velocity measurements, static conditions
Experimental: A Digital Instruments (Santa Barbara, Calif.) Nanoscope IIIa Multimode system was used for topographical and lattice imaging. All measurements were performed in contact mode using Veeco NP_B Si3N4 cantilever tips with a spring constant of 0.12N/m (triangular, 196 μm length, 41 μm width) on a glass cantilever holder, and a liquid cell was created for in situ step velocity measurements. All L-cystine crystals for AFM measurements were prepared by method 1. Crystals were transferred onto an AFM specimen disk coated with partially cured (1 hr) UV-curable optical cement (Type SK-9, EMS Acquisition Corp.) by gently pressing the disk against hexagonal platelets or L-cystine needles isolated by filtration (Whatman Nuclepore membrane, 8 μm). The (0001) face of hexagonal platelets was exposed normal to the disk for AFM analysis with growth occurring along equivalent {1010} faces in the lateral directions, while the sides of L-cystine needles were exposed normal to the disc. The partially cured polymer with adhered crystals was completely cured by additional UV radiation (2 hrs) prior to analysis. Measurements of individual step heights for hexagonal L-cystine crystals were acquired in air (contact mode) at a scan rate of 1.00 Hz and 256 samples per line over a 15×15 μm^2 surface area. Integral and proportional gains were set to the highest possible values without obtaining feedback. Four hexagonal crystals (5 areas per crystal) were analyzed for statistical step height distributions, which were calculated from >10^3 individual steps. Lattice-resolved images of crystal surfaces were acquired in water (contact mode) using a scan rate of 112 Hz over a 12×12 nm^2 area.
Real time in situ step velocity measurements of L-cystine growth were assessed along six structurally-equivalent {1010} faces of the hexagonal structure. A liquid cell was created with the glass cantilever tip holder, and working solutions were injected through a 1-mL syringe. Prior to injecting the growth medium (i.e. supersaturated L-cystine solution), crystals were etched with deionized water in the fluid cell for one hour to remove amorphous deposits or impurities that may be present on the surface. Supersaturated solutions (0.5 g/L) were generated by adding L-cystine to deionized water, boiling the solution on a heating mantle for 20 min to completely dissolve the solute, and allowing the solution to cool for 20 min on the heating mantle before transferring the solution (via syringe) to the AFM fluid cell. […]
The effect of additives on crystal growth rates was investigated. […] For each measurement, growth was first assessed in the absence of additive, then in the presence of additive on the identical area of the crystal surface to analyze relative changes in step velocity. […]

[2] = Crystal size and habit by optical microscopy and SEM after bulk crystallization with additive
Experimental: Various proteins, poly-amino acids, and molecular mimics of L-cystine were examined as additives. The aforementioned procedure for hexagonal platelet crystallization was repeated. Following the 75 min cooling period, prior to any observable crystallization, the additive was added to the supersaturated L-cystine solution to the desired concentration. The container was sealed and stored for 72 hours at room temperature without stirring, after which the precipitate was collected by vacuum filtration (Whatman Grade 1 filters, >11 μm pores) and were air dried prior to analysis. Crystallization without additive was performed in an identical manner for comparison using a control solution from the same batch. The mass yields of L-cystine crystals were obtained by dividing the mass of L-cystine crystals (collected from growth solution by filtration) by the mass of L-cystine added in the growth solution. The crystals were isolated with 11 μm-pore filters, which were regarded as sufficiently small for reliable capture of the crystals (optical micrographs reveal that the size of crystals was always greater than 50 μm
An Orion 3 Star pH meter (Thermo Electron Corp.) with Orion 9157BNMD probe was used to measure the pH of L-cystine solutions. Crystal morphology was measured with a Leitz ERGOLUZ optical microscope and a Hitachi 3500 scanning electron microscopy. A thin coating of gold (2 nm) was sputtered on SEM samples and images were acquired at low voltage (2-5 kV) to minimize sample melting. ^1H NMR spectra were recorded using a Bruker AVANCE 400 spectrometer and were routinely run using broadband decoupling. Chemical shifts (δ), expressed in ppm, are referenced to the corresponding residual nuclei in deuterated solvent (D2O). Powder X-ray diffraction (XRD) patterns of isolated crystals were acquired with a Panalytical XPert PRO MPD using a Bragg-Brentano geometry with fixed slits at power settings of 45 kV and 40 mA. A CuKa radiation (0.154 nm) source was used with a 1 degree fixed divergence slit (10 mm beam mask) for incident X-rays and a 1 degree anti-scatter slit Ni filter ( 1/16 degree receiving slit) for diffracted X-rays.

COC(=O)[C@@H](N)CSSC[C@H](N)C(=O)OC.Cl.Cl [CDME, Cystine Dimethyl Ester Dihydrochloride]
advancement of higher {1010} steps ([1]; 5.0 g/L CDME, 0.5 g/L L-cystine, step heights >0.6 nm, larger than 1 nm, Dihydrochloride): suppresses; also recorded: completely suppressed | Step velocity of 1-nm steps ([1]; large excess of CDME (5 g/L), 29 nm/min in the absence of additive): 7 nm/min | needle volume less than hexagonal platelets [2]: ~100 times | size of hexagonal platelets ([2]; 1.7 mg/L CDME, 700 mg/L L-cystine, without additive 200-400 μm): 50-100 μm | number of needles collected ([2]; 25 mg/L (3 wt %) CDME, Dihydrochloride): negligible; also recorded: Trace number of needles

From patent US9040261B2, “Compounds as L-cystine crystallization inhibitors and uses thereof” (NEW YORK UNIVERSITY, priority 2009, dated 2015)
